In ChEMBL document CHEMBL1149774, “Synthesis of N-(5,7-diamino-3-phenyl-quinoxalin-2-yl)-3,4,5-substituted anilines and N-[4[(5,7-diamino-3-phenylquinoxalin-2-yl)amino]benzoyl]-l-glutamic acid diethyl ester: evaluation of in vitro anti-cancer and anti-folate activities” (Eur J Med Chem, 2008):
The source made the active and inactive calls. No cut-off for these calls is given here.

Experiments:
CCRF-CEM = experiment: Growth inhibition of human CCRF-CEM cells after 48 hrs by SRB staining method; type: functional; conditions: for CC50: read-out: pLC50 (the source's name) (converted); for TGI: read-out: pTGI (converted)
Thymidylate synthase [1] = target: Thymidylate synthase (Escherichia coli, UniProt C3SWJ7)
Thymidylate synthase (Escherichia coli, UniProt C3SWJ7), sequence (C3SWJ7 whole entry): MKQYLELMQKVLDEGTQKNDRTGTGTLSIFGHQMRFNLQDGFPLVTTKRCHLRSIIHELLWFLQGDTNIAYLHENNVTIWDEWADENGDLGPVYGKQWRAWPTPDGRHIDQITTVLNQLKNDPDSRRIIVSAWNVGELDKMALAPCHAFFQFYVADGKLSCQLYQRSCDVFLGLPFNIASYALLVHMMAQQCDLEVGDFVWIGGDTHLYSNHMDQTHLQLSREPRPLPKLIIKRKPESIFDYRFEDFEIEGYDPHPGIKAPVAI

HT-29 = experiment: Growth inhibition of human HT29 cells after 48 hrs by SRB staining method; type: functional; conditions: HT-29, 48 h; for TGI: read-out: pTGI (converted)
Thymidylate synthase [2] = target: Thymidylate synthase (Homo sapiens, UniProt P04818); experiment: Inhibition of human thymidylate synthase at 10 uM
Thymidylate synthase (Homo sapiens, UniProt P04818), sequence (P04818 2-313 limits assumed): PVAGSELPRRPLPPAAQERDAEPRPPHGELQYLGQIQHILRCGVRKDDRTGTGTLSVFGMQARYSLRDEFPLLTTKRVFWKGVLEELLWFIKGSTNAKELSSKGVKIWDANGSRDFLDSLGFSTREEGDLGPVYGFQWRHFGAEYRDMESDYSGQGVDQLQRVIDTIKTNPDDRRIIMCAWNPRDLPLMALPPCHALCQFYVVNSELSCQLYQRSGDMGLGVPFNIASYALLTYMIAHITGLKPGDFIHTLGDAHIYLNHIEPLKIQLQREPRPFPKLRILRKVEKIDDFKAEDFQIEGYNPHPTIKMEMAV

[3] = target: Thymidylate synthase (Escherichia coli) (UniProt C3SWJ7); experiment: Inhibition of Escherichia coli thymidylate synthase at 10 uM
Thymidylate synthase (Escherichia coli), sequence (C3SWJ7 1-264): as the sequence (C3SWJ7 whole entry) above

Nc1cc(N)c2nc(-c3ccccc3)c(Nc3ccc(Cl)c(Cl)c3)nc2c1
GI50 (CCRF-CEM): 1.29 µM
CC50 (CCRF-CEM): > 100 µM
Ki (Thymidylate synthase [1]): 3 µM

COc1cc(Nc2nc3cc(N)cc(N)c3nc2-c2ccccc2)cc(OC)c1
GI50 (CCRF-CEM): < 0.01 µM
CC50 (CCRF-CEM): 0.977 µM
TGI (CCRF-CEM): 0.166 µM
GI50 (HT-29): 27.5 µM
LC50 (HT-29): > 100 µM
TGI (HT-29): > 100 µM

COc1ccc(Nc2nc3cc(N)cc(N)c3nc2-c2ccccc2)cc1OC
Activity (Thymidylate synthase [2]): inactive
Activity [3]: inactive
GI50 (HT-29): 25.1 µM
LC50 (HT-29): > 100 µM
TGI (HT-29): 52.5 µM

COc1cc(Nc2nc3cc(N)cc(N)c3nc2-c2ccccc2)cc(OC)c1OC
GI50 (CCRF-CEM): 4.37 µM
CC50 (CCRF-CEM): > 100 µM
TGI (CCRF-CEM): 41.7 µM
GI50 (HT-29): 33.1 µM
LC50 (HT-29): 74.1 µM
TGI (HT-29): 34.7 µM

Nc1cc(N)c2nc(-c3ccccc3)c(Nc3ccc(F)cc3)nc2c1
Activity (Thymidylate synthase [2]): inactive
GI50 (HT-29): 18.6 µM
TGI (HT-29): 35.5 µM
Ki (Thymidylate synthase [1]): 70 µM

COc1ccc(Nc2nc3cc(N)cc(N)c3nc2-c2ccccc2)cc1
GI50 (CCRF-CEM): 12 µM
CC50 (CCRF-CEM): > 100 µM
TGI (CCRF-CEM): > 100 µM
GI50 (HT-29): 24 µM
LC50 (HT-29): 89.1 µM
TGI (HT-29): 42.7 µM

CCOC(=O)CCC(NC(=O)c1ccc(Nc2nc3cc(N)cc(N)c3nc2-c2ccccc2)cc1)C(=O)OCC (centres undefined)
GI50 (CCRF-CEM): 2.95 µM
CC50 (CCRF-CEM): > 100 µM
TGI (CCRF-CEM): > 100 µM
Activity [3]: inactive
